In ChEMBL document CHEMBL1764954, “Activation of the G-protein-coupled receptor 119: a conformation-based hypothesis for understanding agonist response” (J Med Chem, 2011):
In brackets after ≈: the same amount, converted by molar mass. Activity calls are given as the source filed them. No cut-off for these calls is given here.

Experiments:
[1] = Aqueous solubility of the compound; type: physicochemical; settings: aqueous medium
[2] = Solubility of the compound in gastric fluid at pH 1.2; type: physicochemical; settings: simulated gi fluid
Rattus norvegicus [3] = test: Increase in GLP1 level in overnight fasted Wistar rats at 5 and 50 mg/kg, po; type: functional, organism-based; design: dose 50 mg/kg
Rattus norvegicus [4] = test: Hypoglycemic activity in overnight fasted Wistar rats assessed as decrease in glucose AUC at 5 and 50 mg/kg, po by oral glucose tolerance test; type: functional, organism-based; design: dose 50 mg/kg

## Cc1ncccc1Oc1ncnc(OC2CCN(C(=O)OC(C)C)CC2)c1C
[1]
  solubility: > 40 mg/mL

## Cc1ncccc1Oc1ncnc(OC2C3COCC2CN(C(=O)OC(C)C)C3)c1C (stereo in doubt; 8) [listing 1 of 2 here]
[2]
  solubility: 8.6 mg/mL (≈ 20.1 mM)

## Cc1ncccc1Oc1ncnc(OC2C3COCC2CN(C(=O)OC(C)C)C3)c1C (stereo in doubt; 8) [listing 2 of 2 here]
Rattus norvegicus [3]
  Activity: Active
Rattus norvegicus [4]
  Activity: Active

## Cc1ncccc1Oc1ncnc(OC2C3COCC2CN(C(=O)OC(C)C)C3)c1C (stereo in doubt; 9)
[2]
  solubility: > 66 mg/mL
